The text below walks through data of patent US8592552B2 (priority 2007, dated 2013).

Data set [1] concerns African swine fever virus (ASFV) BA71V. The format is cell-based.

Where no end group is shown, it is not given here.

For the substance RRRRRRRRSLVSSDESSSGSSHSSGEHS [RS28], in the data set with Vero cells, the “proliferation of Vero cells (proliferative index)” value is given as “not modified”. As to “SS20: 20-residue negative control peptide of irrelevant sequence (SLVSSDESSSGSSHSSGEHS) [reference compound]”, in data set [1], the “I.C.E. at 50 μM (inhibition of the cytopathic effect)” value is given as “no” and the “I.C.E. at 100 μM (inhibition of the cytopathic effect)” value is on record as “no”.
